Results taken from publication PMC7763113, “Design, synthesis, cytotoxic activity, and apoptosis inducing effects of 4- and N-substituted benzoyltaurinamide derivatives” (Turkish Journal of Chemistry, 2020).
Several values for one entry are separate records, joined by “and”; a condition that tells them apart may be missing. Equal values may be shown once. Entries after “also recorded” stand apart in the source; their conditions may differ. Read-outs that look alike come from different tables or passages of the source.

Columns and labels:
[1] = test system: MDA-MB-231 triple-negative breast cancer cells; assay: MTT cytotoxicity assay, MDA-MB-231; assay type: cell-based, human; conditions: mean ± SD, read-out: Cytotoxic activity IC50, MDA-MB-231
Source text: (§1) The human neuroblastoma cells (SH-SY5Y), triple-negative breast cancer cells (MDA-MB-231), and human pancreatic cancer cells (Panc1) used in this study were purchased from the American Type Culture Collection (ATCC). The cells were suspended in complete Dulbecco’s modified Eagle medium (DMEM) (Life Technologies, Gibco BRL, Grand Island, NY) supplemented with 10% fetal bovine serum (FBS, Hyclone), 1% penicillin and streptomycin (100 U/mL, Invitrogen) and plated in cell culture dishes. The cultures were maintained at 37 °C in a 5% CO2 95% humidified atmosphere. After reaching 85% confluence, the cells were transferred to 96-well plates or culture dishes. For MTT assays, the cells were seeded into 96-well cell culture plates at a density of 2 × 10^3 cells per well and allowed to adhere for 24 h. The cells were treated with fresh medium containing experimental compounds (100, 10, 1 µM) and incubated in a 5% CO2 incubator for 48 and 72 h. For protein analysis, the cells were seeded into 6-well cell culture plates at a density of 0.5 x 10^6 cells/well and allowed to adhere to the surface for 24 h. The stock solutions of the test compounds (5 mM) were prepared in sterile DMSO, and these stocks were then appropriately diluted with the complete culture medium. DMSO levels were maintained below 1% in the test concentrations.
(§2) Briefly, following exposures, MTT (at a final concentration of 0.5 mg/mL) was added to each well, and plates were incubated for 2 h at 37 °C in a 5% CO2 humidified incubator. The reaction mixture was removed, and DMSO was added to each well. The plates were shaken at room temperature, and the absorbance was measured at 570 nm and 630 nm using a microplate reader (VersaMax, Molecular Devices, USA). Percent survival was plotted relative to vehicle control cells, which were normalized to 100% survival.

[2] = MTT cytotoxicity assay, MCF-10a (nontumorigenic); assay type: cell-based; conditions: MCF-10a nontumorigenic mammary cells, MCF-10a nontumorigenic human mammary cell line, mean ± SD, read-out: Cytotoxic activity IC50, MCF-10a
Source text: [The source words this procedure for another cell line and reports this cell line under the same test.] as §1, §2

[3] = test system: SH-SY5Y human neuroblastoma cells; assay: MTT cytotoxicity assay, SH-SY5Y; assay type: cell-based; conditions: mean ± SD, read-out: Cytotoxic activity IC50, SH-SY5Y
Source text: as §1, §2

[4] = test system: PANC-1 human pancreatic cancer cells; assay: MTT cytotoxicity assay, PANC-1; assay type: cell-based; conditions: mean ± SD, read-out: Cytotoxic activity IC50, PANC-1
Source text: as §1, §2

[5] = test system: BAX, Bcl-2, Bcl-xL, caspase-3 and caspase-9 expression in MDA-MB-231 cell line; assay: Western blot of apoptotic proteins, MDA-MB-231; assay type: cell-based, human; conditions: for BAX protein levels: after only 24 h
Experimental: (§3) The cells (0.5 × 10^6 cell/well) were seeded into 6 well plates and incubated for 24 h, and then treated with selected experimental compounds for 24 h and 48 h. Following incubation, the cells were washed with ice-cold 1X PBS and lysed in 1X cell lysis buffer. These lysates were quantified using the BCA protein assay. Then, the cell lysates were analyzed by western blot.
(§4) On a 12% (w/v) tris-glycine denaturing gel, 20 μg protein was separated by electrophoresis, and then transferred to a PVDF membrane. After blocking, the membrane was incubated with primary antibodies, anti-Bax rabbit monoclonal antibody, anti-Bcl-2 rabbit monoclonal antibody, anti-Bcl-xL rabbit monoclonal antibody, anti-caspase-3 rabbit monoclonal antibody, and anti-caspase-9 rabbit monoclonal antibody (1:1000, Cell Signaling Technology) at 4 °C overnight. Following the incubation, the membrane was incubated with an anti-β-actin mouse monoclonal antibody (1:1000, Cell Signaling Technology) at room temperature for 1 h. After washing, the membrane was incubated with peroxidase-conjugated secondary antibodies for 1 h to visualize labeled proteins by enhanced chemiluminescence.

[6] = test system: BAX, Bcl-2, Bcl-xL, caspase-3 and caspase-9 expression in PANC-1 cell line; assay: Western blot of apoptotic proteins, PANC-1; assay type: cell-based, human; conditions: at IC50, 24 and 48 h, vs control
Experimental: as §3, §4

SH-SY5Y cells = assay: Annexin V-FITC/PI flow cytometry, SH-SY5Y; assay type: cell-based, human; conditions: 48 h, control 3.2%
Experimental: (§5) The cells were harvested after 48 h, washed with PBS, and analyzed using the Annexin V FITC/PI Apoptosis Detection kit (BioVision, Mountain View, CA, USA) with a benchtop flow cytometer (Accuri C6 flow cytometry, Becton Dickinson).

PANC-1 cells = assay: Annexin V-FITC/PI flow cytometry, PANC-1; assay type: cell-based, human; conditions: at cytotoxic concentrations, 48 h
Experimental: as §5

MDA-MB-231 cells = assay: Annexin V-FITC/PI flow cytometry, MDA-MB-231; assay type: cell-based, human; conditions: 48 h, control 1.2%
Experimental: as §5

Row | SMILES | IC50 ([1]; Homo sapiens, MDA-MB-231, MTT) [µM] | IC50 [2] [µM] | IC50 ([3]; Homo sapiens, SH-SY5Y) [µM] | IC50 ([4]; Homo sapiens, PANC-1, MTT) [µM] | melting point [°C] | BAX protein levels ([5]; Western blot) | IC50 ([4]; MTT) [µM] | BAX expression [6] | Bcl-2 expression [6] | IC50 ([1]; MTT) | increase of caspase-9 activity ([5]; after only 48 h, relative to control) [fold] | IC50 [3] [µM] | caspase-3 expression (in words) ([5]; Western blot) | decrease of Bcl-2 expression ([5]; after 24 and 48 h, compared to control) | apoptotic cell ratios (SH-SY5Y cells) | apoptotic cell ratios (Annexin V-FITC/PI result) (PANC-1 cells) | Bcl-xL expression [6] | caspase-3 expression [6] | caspase-9 expression [6] | percent of the positive apoptotic cells (MDA-MB-231 cells)
1 | O=C(NCCS(=O)(=O)Nc1ccccc1)c1ccccc1 [Compound 1, N-(2-(N-phenylsulfamoyl)ethyl)benzamide] | 140.4 ± 1.1 | 78.2 ± 1.6 | 92.2 ± 1.5 | 86.7 ± 1.4 | 123.7 to 124.7 | – | – | – | – | – | – | – | – | – | – | – | – | – | – | –
2 | O=C(NCCS(=O)(=O)Nc1ccccc1)c1ccc(Cl)cc1 [Compound 2, 4-Chloro-N-(2-(N-phenylsulfamoyl)ethyl)benzamide] | 99.7 ± 1.1 | 232.9 ± 2.1 | 29 ± 1.5 | 86.6 | 143.8 to 144.8 | significantly increased | 86.6 ± 1.6 | significantly upregulated | significantly upregulated | – | – | – | – | – | – | – | – | – | – | –
3 | COc1ccc(C(=O)NCCS(=O)(=O)Nc2ccccc2)cc1 [Compound 3, 4-Methoxy-N-(2-(N-phenylsulfamoyl)ethyl)benzamide] | 111 ± 1.2 | 98.9 ± 1.2 | 57.4 ± 1.6 | 104 ± 1.6 | 121.3 to 122.3 | – | – | – | – | – | – | – | – | – | – | – | – | – | – | –
4 | Cc1ccc(C(=O)NCCS(=O)(=O)Nc2ccccc2)cc1 [Compound 4, 4-Methyl-N-(2-(N-phenylsulfamoyl)ethyl)benzamide] | 89.7 ± 1.5 | 132 ± 1.7 | 75.9 ± 1.6 | 86.6 ± 1.4 | 149.7 to 150.7 | – | – | – | – | – | – | – | – | – | – | – | – | – | – | –
5 | O=C(NCCS(=O)(=O)N1CCOCC1)c1ccccc1 [Compound 5, N-(2-(morpholinosulfonyl)ethyl)benzamide] | 103 ± 1.7 | 89.6 ± 1.5 | 118 ± 1.8 | 24.2 ± 2.1 | 107 to 108 | – | – | – | – | – | – | – | – | – | – | – | – | – | – | –
6 | O=C(NCCS(=O)(=O)N1CCOCC1)c1ccc(Cl)cc1 [Compound 6, 4-Chloro-N-(2-(morpholinosulfonyl)ethyl)benzamide] | 79.1 | 70.7 ± 1.8 | 80.6 | 8.8 ± 2.1 | 162 to 163 | significantly increased | – | – | – | 136 ± 1.5 µM | 1.06 | 80.6 ± 1.9 | – | – | – | – | – | – | – | –
7 | COc1ccc(C(=O)NCCS(=O)(=O)N2CCOCC2)cc1 [Compound 7, 4-Methoxy-N-(2-(morpholinosulfonyl)ethyl)benzamide] | 136 | 118 ± 1.2 | 134 ± 1.7 | 1.2 ± 1.8 | 183.5 to 184.5 | significantly increased | – | effectively upregulated | did not show any effect | 79 µM and 77 µM | – | – | lack of change | 2- to 3 fold | no positive results | no significant changes; also recorded: negative | slightly decreased | effectively upregulated | effectively upregulated | no changes
8 | Cc1ccc(C(=O)NCCS(=O)(=O)N2CCOCC2)cc1 [Compound 8, 4-Methyl-N-(2-(morpholinosulfonyl)ethyl)benzamide] | 81.5 ± 1.2 | 81.4 ± 1.3 | 79.3 ± 1.6 | 120.3 ± 1.2 | 174.2 to 175.2 | – | – | – | – | – | – | – | – | – | – | – | – | – | – | –
